# Data: PubChem BioAssay (NCI)
#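 Cultured in 96-well plates, cells were exposed to test compound for 48 hours across five concentrations. The concentration for full growth arrest is given as TGI.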
# Experiments:
# Experiment in all cases: NCI tumour cell line growth inhibition, 48 h
# [1] = tested on: DLD-1 colon
# [2] = tested on: DMS 114 small cell lung
# [3] = tested on: DMS 273 small cell lung
# [4] = tested on: HOP-18 NSCLC
# [5] = tested on: LXFL 529 NSCLC
# [6] = tested on: M19-MEL melanoma
# [7] = tested on: SNB-78 CNS
# [8] = tested on: P388 leukemia
# [9] = tested on: P388/ADR leukemia
# [10] = tested on: SN12K1 renal
# [11] = tested on: XF 498 CNS
# [12] = tested on: RXF-631 renal
Compound,TGI [1],TGI [2],TGI [3],TGI [4],TGI [5],TGI [6],TGI [7],TGI [8],TGI [9],TGI [10],TGI [11],TGI [12]
CN(C)c1ccc(/C=C/c2cc[n+](C)c3ccccc23)cc1,17.1 µM,9.5 µM,10.8 µM,19.9 µM,13.5 µM,14.9 µM,72.4 µM,,,,,
CCOC(=O)CN1CCSC1=NC#N,> 100 µM,> 100 µM,> 100 µM,> 100 µM,,> 100 µM,> 100 µM,> 100 µM,> 100 µM,> 100 µM,> 100 µM,
O=C(Nc1ccc([N+](=O)[O-])cc1)C(=O)C(C(=O)c1ccccc1F)C1OC(=O)c2ccccc21 (configuration not stated),> 100 µM,98 µM,> 100 µM,,> 100 µM,> 100 µM,> 100 µM,,,,> 100 µM,84 µM
CC(C)=CCC/C(C)=C/Cc1c(O)ccc2c1[nH]c1cc(O)c(C)cc12,> 25 µM,> 25 µM,> 25 µM,,> 25 µM,> 25 µM,> 25 µM,,,,> 25 µM,
O=C(O)c1cc2c(s1)C(=O)c1sccc1C2=O,27.7 µM,11.2 µM,22.8 µM,17.7 µM,,2.49 µM,0.909 µM,,,,35.4 µM,
CC1=NN(C(=O)c2ccc(Cl)cc2)C(=O)/C1=C/c1cccc([N+](=O)[O-])c1,> 100 µM,> 100 µM,,,> 100 µM,> 100 µM,> 100 µM,,,,> 100 µM,
COC1CC(n2cnc3c(N)ncnc32)OC1CO (configuration not stated),> 100 µM,> 100 µM,> 100 µM,,> 100 µM,> 100 µM,,,,,> 100 µM,
CC(=O)O[C@]12CCC[C@H]1C1(O)C(O)CCC[C@H]12 (some centres not stated),,> 100 µM,> 100 µM,> 100 µM,> 100 µM,> 100 µM,> 100 µM,,,,> 100 µM,
CC(CCc1ccc2c(c1)c(=N)c1ccc(N)cc1n2O)CC(C)(C)C (configuration not stated),3.5 µM,,3.85 µM,3.35 µM,,2.98 µM,4.32 µM,,,,2.45 µM,
CC(Oc1ccc(OCC2CCCCC2)cc1)C(=O)N(CCO)CCO (configuration not stated),,> 100 µM,> 100 µM,> 100 µM,> 100 µM,> 100 µM,> 100 µM,,,,> 100 µM,
C=C(N=[N+]=[N-])c1cn(C2CC(O)C(CO)O2)c(=O)[nH]c1=O (configuration not stated),> 100 µM,> 100 µM,> 100 µM,> 100 µM,> 100 µM,> 100 µM,> 100 µM,,,,> 100 µM,
Cn1c(=O)nc2n(-c3ccc(Cl)cc3Cl)c3ccccc3nc-2c1=O,24.5 µM,4.26 µM,,23 µM,,2.91 µM,39.3 µM,,,,0.864 µM,
C=CCc1ccc(O)c(-c2cc(C3Oc4c(-c5cc(CC=C)ccc5O)cc(O)cc4[C@@H]3CO)ccc2O)c1 (some centres not stated),38.6 µM,28.1 µM,44.5 µM,> 100 µM,52.5 µM,> 100 µM,> 100 µM,,,,,
COC(=O)[C@@]12OC[C@]34C([C@@H](O)C1O)[C@@]1(C)CC(=O)C(O)=C(C)C1C[C@H]3OC(=O)[C@H](OC(=O)CC(C)C(F)(F)F)[C@H]42 (some centres not stated),0.509 µM,0.128 µM,0.0426 µM,2.79 µM,0.195 µM,0.205 µM,37.5 µM,,,,0.188 µM,
[O-]c1on[n+]2c1c(Nc1ccc(Cl)cc1)nc1ccccc12,> 100 µM,> 100 µM,> 100 µM,,> 100 µM,> 100 µM,> 100 µM,,,,> 100 µM,
